Consider one molecule from paper PMC11109052, “Metabolism characterization and toxicity of N-hydap, a marine candidate drug for lung cancer therapy by LC–MS method” (Natural Products and Bioprospecting, 2024).

A short description of data set [1]: Metabolic stability in HLMs, CYP reaction. The settings on record: human, human liver microsomes (CYP reaction), pH 7.4, HLMs, CYP reaction. The data set is classed as in vitro ADME, human. The protocol: (§1) Various microsomes including HLMs, HKMs, HIMs, RLMs, RKMs, MLMs and MKMs were involved in CYP and UGT reactions of N-hydap. A typical CYP incubation mixture included 0.5 mg/mL microsomes protein, 3.3 mM glucose-6-phosphate, 3.3 mM MgCl2, 0.4 U/mL glucose-6-phosphate dehydrogenase, and N-hydap (1, 2.5, or 10 μM) in the 50 mM potassium phosphate buffer (KPI, pH 7.4). The incubation mixture was preincubated at 37 °C for 5 min, and the reaction was started by adding NADP to form a NADPH-regenerating system. Simultaneously, the classic UGT reaction system consisted of 50 mM KPI, 5 mM MgCl2, 0.5 mg/mL microsomes, 0.125 mg/mL alamethicin, and 5.25 mg/mL saccharolactone. The reaction was initiated after supplying UDPGA. The CYP and UGT mixtures were incubated at 37 °C in a shaking water bath (80 rpm) for 1.5 h to enhance metabolite formation. To terminate the reaction, an ice-cold solution of Tes (50 ng/mL, dissolved in methanol and used as an internal standard) was added to half of the mixture volume. The mixture was vortexed for 30 s and then centrifuged at 13,000 rpm for 15 min to eliminate any precipitated protein. The resulting supernatant was transferred to autosampler vials, and 5 μL was injected into the LC–MS system. All reactions were conducted in triplicate.
(§2) The identical concentration of HLMs was utilized for both the CYP reaction and UGT reaction. At predetermined time intervals of 0, 15, 30, and 60 min, 100 µL samples were taken from the reaction volumes. To halt the reaction, 50 µL of 50 ng/mL Tes was added. Samples were analyzed using LC–MS to compare the remaining level of N-hydap between the CYP reaction and UGT reaction. T1/2 and CLint (in vivo) (mL/min/kg) were calculated as reported previously:
(§3) T1/2=0.693/k, where k represents the slope of the line derived from plotting the natural logarithm of the percentage (Ln %) of N-hydap remaining in the reaction mixture against the incubation time (minutes).
(§4) CLintinvivo=0.693/invitroT1/2×mLincubation/mgmicrosomes×45mgmicrosomes/gliver×20gliver/kgbodyweight.

A further data set has as its system HLMs (CYP reaction). Nature of the data set: Metabolic stability in HLMs, CYP reaction. The data set is classed as in vitro ADME, human. The conditions noted are these: for remaining percentage of N-hydap: HLMs, CYP reaction. The protocol:
as §1, §2, §3, §4

The test system of another data set is Ugt1a1. Description: Western blot protein level after 7 days gavage: UGT1A1. The data set is classed as in vivo. The settings on record: mice, p.o. 7 days; liver. The procedure: (§5) Mice were randomly divided into four groups, with eight animals in each group. The mice received oral pretreatment with N-hydap for 7 days at doses of 2, 5, and 10 mg/kg/day, which were considered as the low dose, medium dose, and high dose, respectively. Correspondingly, the control group received PBS. On the 8th day, the liver and kidneys were removed, and organs from eight mice per group were combined to prepare MLMs and MKMs using the detailed procedures above. Subsequently, we determined the activity of CYP and UGT enzymes by specific substrate metabolized with MLMs (0.5 mg/mL) and MKMs (0.2 mg/mL) in vitro. […] In the ex vivo experiments, the activity of enzymes was measured by quantifying the production of various metabolites (nM/mg protein/min). […] The measurements were performed using multiple reaction monitoring (MRM) transitions, which are specific mass spectrometry transitions used for quantification. […]
After 7 days of N-hydap gavage, the liver and kidney tissues were lysed using RIPA buffer supplemented with a 1% protease inhibitor cocktail. […] Western blot signals were detected using an ECL chemiluminescence detection agent. The relative intensity of each protein band was scanned and quantified using Image J software.
Background: In western blotting, separated proteins are transferred to a membrane and probed.

The next data set concerns CYP2C9. Nature of the data set: DME activity ex vivo in MLMs and MKMs: CYP2C9 (4-OH-DIC from DIC). The conditions noted are these: liver microsomes of mice pretreated 7 days p.o. The protocol:
as §5, with “vitro. Specifically, the following selective substrates were used for the respective enzymes: PH (1 μM) for CYP1A2, DIC (1 μM) for CYP2C9, MP (90 μM) for CYP2C19, DM (1 μM) for CYP2D6, CZX (10 μM) for CYP2E1, Tes (1 μM) for CYP3A4, SN38 (1 μM) for UGT1A1, CACD (100 μM) for UGT1A3, Sero (20 μM) for UGT1A6, and Prop (1 μM) for UGT1A9. All substrates were dissolved in methanol or DMSO.” for “vitro.”
(In general: Liver microsomes are vesicles of endoplasmic reticulum, rich in cytochrome P450 enzymes.)

The nature of data set [2]: Distribution studies in mice organs. The conditions noted are these: 30 min and 4 h. The data set is classed as in vivo. The procedure:
The heart, liver, spleen, lungs and kidneys were removed from mice after administering a dose of 5 mg/kg through oral gavage and 2 mg/kg through tail vein injection at 30 min and 240 min, followed by homogenization with normal saline. The resulting homogenate was centrifuged at 4 °C, 13,000 rpm for 20 min, and the supernatant was then mixed with the internal standard by vortexing. The mixtures were centrifuged at 4 °C, 13,000 rpm for 15 min. The resulting supernatant was then subjected to vacuum drying for 3–4 h. Lastly, the dried powder was reconstituted with a mixture of 50% methanol and water, and then centrifuged for LC–MS testing.

Regarding `CC1CCC2C(C=CC(C)C2C(=O)c2c(O)c(C3(O)CCC(O)C4OC43)cn(O)c2=O)C1` (centres unmarked) [N-hydap, N-Hydroxyapiosporamide], in data set [1], the half-life (usually how long it takes for the measured level to halve) was 2.98 h. Further, the CLint scaled in data set [1] (extrapolated from in vitro T1/2, read-out: CLint (in vivo)) was 34.9 mL/min/kg. Besides, the “remaining percentage of N-hydap” value with HLMs (CYP reaction) (15 min) stood at 64.43%. In addition, the “remaining percentage of N-hydap” value in the data set with HLMs (CYP reaction) (30 min) was found to be 58.02%. Besides, the “eliminated by CYPs” value in the data set on HLMs (CYP reaction) (various microsomes, after 1 h) is on record as “about 50%”. Further, in the data set with Ugt1a1, the “protein levels of UGT1A1” value was “slightly down-regulated”. For the same molecule, in the data set on CYP2C9, the “reduction of formation rate of 4-OH-DIC vs control” value turned out to be 70%. Moreover, in data set [2] (oral 5 mg/kg), the “total distribution ratio, heart” value came out at 13.35%; the “total distribution ratio, kidneys” value came out at 25.50%; the “total distribution ratio, liver” value is 11.45%; the “total distribution ratio, lungs” value was determined as 26.26%. Moreover, the “total distribution ratio, spleen” value in data set [2] (oral 5 mg/kg) is 23.44%. Further, in data set [2] (tail vein injection 2 mg/kg), the “total distribution ratio, heart” value was found to be 10.57%; the “total distribution ratio, kidneys” value was 14.08%; the “total distribution ratio, liver” value came to 37.61%; the “total distribution ratio, lungs” value was found to be 23.17%. Moreover, the “total distribution ratio, spleen” value in data set [2] (tail vein injection 2 mg/kg) was found to be 14.57%.
